pEC50: −log10 of the molar value. Several values for one entry are separate records, joined by “and”; a condition that tells them apart may be missing. Equal entries are not always repeated. Where two headings read alike, the source gives them in different places.
Tests used:
[1] = tested on: B cell receptor (BCR) signaling; experiment: B cell activation assay (flow cytometry), human B cells; assay type: cell-based; conditions: treatment 4 h, IgM stimulation 18 h
Experimental: Compound was present throughout the stimulation. Cells were stained with Live/Dead dye (Fisher L34976) and then fluorophore-conjugated antibodies against CD20 (Biolegend 302330), CD3 (BD Pharmingen 557705), CD86 (Biolegend 305416) and CD69 (Biolegend 310906). Stained cells were fixed in PFA and run on an Attune N×T Acoustic Focusing Flow Cytometer (Thermo-Fisher A29004), and data was analyzed using FlowJo (v10.5.3) and GraphPad Prism (v7.00) software. Single live lymphocytes were gated for B cells (CD20+CD3−) and T cells (CD3+CD20−), and the geometric mean fluorescence intensity (MFI) of CD86 and CD69 was calculated for each population. The MFI of the unstimulated sample was used to quantify baseline activation.
This example evaluates whether CTM treatment affects B cell receptor (BCR) signaling. BTK is activated downstream of the B cell receptor and leads to upregulation of activation markers CD86 and CD69 on the surface of B cells.

[2] = tested on: BTK; experiment: Non-human primate (cyno) DRF PD, BTK remaining in B cells; assay type: in vivo; conditions: blood, 24 h after previous dose
Experimental: This example evaluates potency and tolerability of BTK CTMs following multiple, consecutive days of dosing and examines potency of compounds for BTK and Aiolos degradation. The data in the table below is from a study in which animals were dosed daily with the designated oral dose. Analysis for BTK and Aiolos levels was performed twenty-four hours following the previous dose.

[3] = molecular target: T1, BTK (Canis lupus familiaris, UniProt A0A8I3P3Z9); experiment: PD data from dog (BTK degradation); assay type: in vivo; conditions: blood
T1 construct: from tissue
Source text: (§1) In this example, compounds were profiled for activity in non-mouse species.

[4] = tested on: BTK; experiment: PD data from cyno (BTK degradation); assay type: in vivo; conditions: blood
Source text: as §1

[5] = PK data for BTK CTMs (in vivo plasma concentrations); conditions: Mouse Balb/c
Source text: The present example evaluates in vivo plasma concentrations of BTK CTMs to develop PK-PD-efficacy relationship and predict human exposure.

[6] = tested on: CRBN neo-substrates; experiment: CRBN neo-substrate levels / IMiD activity in MOLT4 and TMD8 cells (FIGS. 10-12); assay type: cell-based
Source text: FIGS. 10A and 10B provide effects of compounds 73, 72, 121, and 44, and control compounds, on neo-substrate and ITK or BTK levels after twenty-four hours in MOLT4 cells (FIG. 10A) and TMD8 cells (FIG. 10B).
FIGS. 11A and 11B provide effects of compounds 44, 72, and 149, and control compounds, on CRBN neo-substrate and ITK levels in MOLT4 cells (FIG. 11A) and TMD8 cells (FIG. 11B).
FIG. 12 provides effects of compounds 130, 149, and 44 on ITK levels and IMiD activity.

[7] = Compound plasma exposure in mouse (CD-1), daily oral dosing, same table as the cyno DRF study; assay type: in vivo; conditions: CD-1, mouse
[8] = molecular target: BTK (Homo sapiens, UniProt Q06187); experiment: BTK degradation (Total BTK HTRF) in Rec-1 cells (Mantle Cell Lymphoma model); assay type: cell-based; set-up: endogenous in cells; host or cells: TMD8, Mino, Rec-1; conditions: treatment time 4 h
Experimental: BTK levels were determined using Cisbio Total-BTK HTRF (Homologous Time-Resolved Fluorescence) kit (63ADK064PEG) according to the manufacturer's protocol. Briefly, cells were incubated in 1× supplied lysis buffer for 30 minutes. In an opaque white low volume 96-well plate (Cisbio, 66PL96005), cell lysate was combined with two different specific BTK antibodies, one conjugated with Eu^3+-Cryptate FRET donor and one conjugated with d2 FRET acceptor. Assay controls include wells containing cell lysate with only the Eu^3+-Cryptate FRET donor antibody and wells containing both HTRF antibodies and lysis buffer without cells or control lysate provided by Cisbio. HTRF ratio was calculated as (acceptor signal at 665 nm/donor signal at 620 nm)×10^4. Background HTRF levels were determined from the control well containing the donor, but no acceptor, antibody. Background HTRF levels were subtracted from all samples. Readouts were reported as HTRF levels relative to HTRF levels of DMSO-treated cells. Four-parameter non-linear regressions were performed in GraphPad Prism 7.02 to obtain DC50 values.
This example evaluates the potency of CTMs in a model of Mantle Cell Lymphoma (MCL). To evaluate potential therapeutic indications, BTK CTMs were assayed in models of Mantle Cell Lymphoma as with the TMD8 cells (ABC-DLBCL) above. Tested CTMs had similar potencies for BTK degradation in the MCL cell lines (Mino and Rec-1) and TMD8 cells.

[9] = tested on: TMD8 C481S cells; experiment: Cell viability assay (CellTiter-Glo), TMD8 C481S cells
[10] = 30 mg/kg, 30 mg/kg PO, 1 day of dosing
[11] = 30 mg/kg, 30 mg/kg PO, 14 days of dosing
[12] = 100 mg/kg, 100 mg/kg PO, 1 day of dosing
[13] = 100 mg/kg, 100 mg/kg PO, 14 days of dosing
[14] = 300 mg/kg, 300 mg/kg PO, 1 day of dosing
[15] = 300 mg/kg, 300 mg/kg PO, 14 days of dosing

T1 sequence (A0A8I3P3Z9 1-664): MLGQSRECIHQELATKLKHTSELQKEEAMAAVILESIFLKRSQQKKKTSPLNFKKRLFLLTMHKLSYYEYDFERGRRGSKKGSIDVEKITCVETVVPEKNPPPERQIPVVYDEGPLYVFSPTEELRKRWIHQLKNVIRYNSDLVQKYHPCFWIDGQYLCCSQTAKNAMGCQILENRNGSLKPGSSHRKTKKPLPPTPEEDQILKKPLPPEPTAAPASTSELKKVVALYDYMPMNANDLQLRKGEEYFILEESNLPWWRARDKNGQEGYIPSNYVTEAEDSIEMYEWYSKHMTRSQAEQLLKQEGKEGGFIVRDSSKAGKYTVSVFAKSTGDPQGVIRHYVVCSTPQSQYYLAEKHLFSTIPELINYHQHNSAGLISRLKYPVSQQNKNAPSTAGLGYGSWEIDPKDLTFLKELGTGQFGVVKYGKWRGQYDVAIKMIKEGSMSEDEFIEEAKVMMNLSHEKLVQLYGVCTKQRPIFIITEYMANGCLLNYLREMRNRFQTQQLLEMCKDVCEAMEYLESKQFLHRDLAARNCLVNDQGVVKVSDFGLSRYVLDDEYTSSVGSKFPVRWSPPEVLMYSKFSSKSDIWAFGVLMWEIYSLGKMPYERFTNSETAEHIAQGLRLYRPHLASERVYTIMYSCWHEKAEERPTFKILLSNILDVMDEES
Sequence of BTK (Homo sapiens, UniProt Q06187) (Q06187 whole entry): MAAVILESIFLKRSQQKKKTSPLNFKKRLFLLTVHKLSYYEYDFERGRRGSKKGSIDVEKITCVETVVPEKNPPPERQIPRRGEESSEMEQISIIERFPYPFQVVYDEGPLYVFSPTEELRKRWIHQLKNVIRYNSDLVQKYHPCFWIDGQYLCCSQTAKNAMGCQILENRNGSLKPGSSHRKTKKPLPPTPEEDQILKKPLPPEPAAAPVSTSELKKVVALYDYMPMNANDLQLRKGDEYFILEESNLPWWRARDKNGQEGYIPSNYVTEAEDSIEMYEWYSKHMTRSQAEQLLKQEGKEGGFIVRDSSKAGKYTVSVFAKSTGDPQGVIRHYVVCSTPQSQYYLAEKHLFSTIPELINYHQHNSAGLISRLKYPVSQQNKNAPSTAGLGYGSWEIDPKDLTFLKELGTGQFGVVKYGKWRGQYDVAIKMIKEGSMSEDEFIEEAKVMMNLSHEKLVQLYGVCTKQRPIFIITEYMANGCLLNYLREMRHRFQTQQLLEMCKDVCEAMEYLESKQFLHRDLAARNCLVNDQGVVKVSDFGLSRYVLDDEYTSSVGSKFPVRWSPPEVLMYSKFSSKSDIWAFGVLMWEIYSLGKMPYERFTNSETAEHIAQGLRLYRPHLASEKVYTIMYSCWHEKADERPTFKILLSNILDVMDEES

pEC50 ([1]; read-out: CD69 EC50): 9.30
pEC50 ([1]; read-out: CD86 EC50): 9.30
% BTK Remaining ([3]; 10 mg/kg PO, 2 h): 88%
% BTK Remaining ([3]; 10 mg/kg PO, 4 h): 56%
% BTK Remaining ([3]; 10 mg/kg PO, 8 h): 35%
% BTK Remaining ([3]; 10 mg/kg PO, 24 h): 19%
% BTK Remaining ([3]; 30 mg/kg PO, 2 h): 87%
% BTK Remaining ([3]; 30 mg/kg PO, 4 h): 58%
% BTK Remaining ([3]; 30 mg/kg PO, 8 h): 28%
% BTK Remaining ([3]; 30 mg/kg PO, 24 h): 14%
AUC ([5]; 1 mg/kg IV): 4.07 µM·h
clearance ([5]; 1 mg/kg IV): 0.306 L/h/kg
Vd ([5]; 1 mg/kg IV, read-out: Volume of Distribution): 0.69 L/kg
AUC ([5]; 10 mg/kg PO): 4 µM·h
bioavailability ([5]; 10 mg/kg PO): 10%
AUC [7, 10]: 2.32 µM·h
Cmax [7, 10]: 0.23 µM
AUC [7, 11]: 2.22 µM·h
Cmax [7, 11]: 0.25 µM
AUC [7, 12]: 4.15 µM·h
Cmax [7, 12]: 0.4 µM
AUC [7, 13]: 8.07 µM·h
Cmax [7, 13]: 0.59 µM
AUC [7, 14]: 9.53 µM·h
Cmax [7, 14]: 0.74 µM
AUC [7, 15]: 12.8 µM·h
Cmax [7, 15]: 0.94 µM
DC50 [8]: 1 nM
SMILES: CN1CCN([C@@H]2CCCN(c3cnc(C(N)=O)c(Nc4ccc(C5CCN(C[C@H]6CCN(c7ccc8c(c7)C(=O)N(C7CCC(=O)NC7=O)C8=O)C6)CC5)cc4)n3)C2)C1=O (stereo partly shown) [Compound 44]
% BTK Remaining in B cells ([2]; 10 mg/kg PO daily, 1 day of dosing): 35%
% BTK Remaining in B cells ([2]; 10 mg/kg PO daily, 14 days of dosing): 16%
% BTK Remaining in B cells ([2]; 30 mg/kg PO daily, 1 day of dosing): 31%
% BTK Remaining in B cells ([2]; 30 mg/kg PO daily, 14 days of dosing): 10%
% BTK Remaining in B cells ([2]; 100 mg/kg PO daily, 1 day of dosing): 14%
% BTK Remaining in B cells ([2]; 100 mg/kg PO daily, 14 days of dosing): 6%
% BTK Remaining ([4]; 1 mg/kg IV, 2 h): 6%
% BTK Remaining ([4]; 1 mg/kg IV, 4 h): 6%
% BTK Remaining ([4]; 1 mg/kg IV, 8 h): 7%
% BTK Remaining ([4]; 1 mg/kg IV, 24 h): 9%
% BTK Remaining ([4]; 1 mg/kg PO, 2 h): 85%
% BTK Remaining ([4]; 1 mg/kg PO, 4 h): 65%
% BTK Remaining ([4]; 1 mg/kg PO, 8 h): 52%
% BTK Remaining ([4]; 1 mg/kg PO, 24 h): 40%
% BTK Remaining ([4]; 10 mg/kg PO, 2 h, 10 mg/kg): 59% and 82%
% BTK Remaining ([4]; 10 mg/kg PO, 4 h, 10 mg/kg): 35% and 42%
% BTK Remaining ([4]; 10 mg/kg PO, 8 h, 10 mg/kg): 22% and 27%
% BTK Remaining ([4]; 10 mg/kg PO, 24 h, 10 mg/kg): 15% and 29%
% BTK Remaining ([4]; 30 mg/kg PO, 2 h): 83%
% BTK Remaining ([4]; 30 mg/kg PO, 4 h): 47%
% BTK Remaining ([4]; 30 mg/kg PO, 8 h): 22%
% BTK Remaining ([4]; 30 mg/kg PO, 24 h): 17%
% BTK Remaining ([4]; 100 mg/kg PO, 2 h): 48%
% BTK Remaining ([4]; 100 mg/kg PO, 4 h): 27%
% BTK Remaining ([4]; 100 mg/kg PO, 8 h): 12%
% BTK Remaining ([4]; 100 mg/kg PO, 24 h): 8%
effect on CRBN neo-substrate levels in cells ([6]; MOLT4 and TMD8 cells, FIGS. 11A and 11B): some effect
effects on CRBN neo-substrate levels ([6]; after twenty-four hours, TMD8 and/or MOLT4 cells, FIGS. 10A and 10B): some effects
pEC50 ([9]; Homo sapiens, TMD8, 72 h): 8.09
EMAX (% viable cells) ([9]; TMD8 C481S cells, treatment time 72 h): 25%

Reference: patent publication US12600732B2, “Bifunctional compounds for degrading BTK via ubiquitin proteosome pathway” (NURIX THERAPEUTICS, INC., priority 2019, dated 2026)
